Laboratory results from patent publication US12358907B2, “Substituted pyrrolidine amides III” (GRÜNENTHAL GMBH, priority 2019, dated 2025).

Key:
[1] = target: human glucocorticoid receptor (Homo sapiens (Human), UniProt P04150); test: Human glucocorticoid receptor (hGR) ligand-binding assay (3H-dexamethasone competition, IM9 cytosol); conditions: read-out: % inhibition hGR at 1 μM
Description: Preferably, the glucocortitcoid receptor extracted from cytosol of IM9 cells is used for competitive radioligand binding assays to calculate percentage inhibition of the binding of radiolabeled ligand 3H-dexamethasone at the human glucocorticoid receptor.
The human lymphoblast cell line IM9 (ATCC, Bethesda, MD) was cultivated in RPMI 1640 media containing 10% fetal bovine serum, penicillin (100 U/ml), streptomycin (100 μg/ml), and 2 mM L-glutamine at 37° and 7% CO2 in a humidified incubator. Cells were centrifuged for 10 minutes at 1500 g and were washed in PBS and repelleted. Cell were then resuspended in homogenization buffer consisting of: 10 mM TES, 10 mM sodium molybdate, 1 mM EDTA, pH 7.4, 20 mM 2-mercaptoethanol, and 10% glycerol. Disruption of the cells was performed by nitrogen cavitation using 2×15 minutes at 600 to 750 psi nitrogen in a N2 cavitator at 0° C. The cell preparation was then centrifuged at 27,000 g for 15 minutes, and the resultant supernatant (=cytosol of IM9 cells) was centrifuged at 103,000 g for 60 minutes at 4° C. The amount of protein in the supernatant fraction was determined using a BCA assay kit and aliquots were snap frozen in a dry ice-acetone bath and stored at −70° C. Competitive binding assays were done in duplicate in homogenization buffer with a total volume of 200 μl. To this end, 1 mg of IM9 cytosol, 0.05 μCi (1.5 nM) of 3H-dexamethasone and unlabeled Example compounds as competitor compounds at 1 μM were mixed. The reaction was stopped after incubation at 0° C. for 16 to 18 hours by the addition of 100 μl of a charcoal-dextran mixture (2% activated charcoal, 0.5% dextran in 10 mM Tris, 1 mM EDTA, pH 7.4). Another incubation step at 0° C. for 10 minutes followed before the samples were centrifuged for 5 minutes at 8200 g. 100 μl of the supernatant) was finally assayed for radioactivity by liquid scintillationspectrometry, and percentage inhibition of 3H-dexamethasone binding was calculated.

[2] = target: glucocorticoid receptor (GAL4 DBD-GR) (Homo sapiens (Human), UniProt P04150); test: GR cell-based assays (GRE agonist / GRE antagonist), CHO-Gal4/GR luciferase reporter; conditions: read-out: IC50 or EC50
glucocorticoid receptor (GAL4 DBD-GR), sequence (P04150 524-758): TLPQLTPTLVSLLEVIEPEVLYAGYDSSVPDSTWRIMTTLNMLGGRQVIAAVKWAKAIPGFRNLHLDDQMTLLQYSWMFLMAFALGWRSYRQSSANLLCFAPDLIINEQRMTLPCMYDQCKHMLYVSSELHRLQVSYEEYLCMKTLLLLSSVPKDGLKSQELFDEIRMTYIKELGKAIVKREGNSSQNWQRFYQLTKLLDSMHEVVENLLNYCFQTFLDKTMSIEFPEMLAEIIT
Outline: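 CHO cells stably carrying GAL4 DBD-GR ligand-binding-domain fusion and a GAL4-UAS firefly luciferase reporter were treated in Opti-MEM with 8 half-log concentrations from 10 μM to 0.003 μM (0.5% DMSO, quadruplicates). Antagonist mode measured repression of beclomethasone-induced signal. Luminescence after lysis gave EC50 or IC50.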

human glucocorticoid receptor, sequence (P04150 whole entry): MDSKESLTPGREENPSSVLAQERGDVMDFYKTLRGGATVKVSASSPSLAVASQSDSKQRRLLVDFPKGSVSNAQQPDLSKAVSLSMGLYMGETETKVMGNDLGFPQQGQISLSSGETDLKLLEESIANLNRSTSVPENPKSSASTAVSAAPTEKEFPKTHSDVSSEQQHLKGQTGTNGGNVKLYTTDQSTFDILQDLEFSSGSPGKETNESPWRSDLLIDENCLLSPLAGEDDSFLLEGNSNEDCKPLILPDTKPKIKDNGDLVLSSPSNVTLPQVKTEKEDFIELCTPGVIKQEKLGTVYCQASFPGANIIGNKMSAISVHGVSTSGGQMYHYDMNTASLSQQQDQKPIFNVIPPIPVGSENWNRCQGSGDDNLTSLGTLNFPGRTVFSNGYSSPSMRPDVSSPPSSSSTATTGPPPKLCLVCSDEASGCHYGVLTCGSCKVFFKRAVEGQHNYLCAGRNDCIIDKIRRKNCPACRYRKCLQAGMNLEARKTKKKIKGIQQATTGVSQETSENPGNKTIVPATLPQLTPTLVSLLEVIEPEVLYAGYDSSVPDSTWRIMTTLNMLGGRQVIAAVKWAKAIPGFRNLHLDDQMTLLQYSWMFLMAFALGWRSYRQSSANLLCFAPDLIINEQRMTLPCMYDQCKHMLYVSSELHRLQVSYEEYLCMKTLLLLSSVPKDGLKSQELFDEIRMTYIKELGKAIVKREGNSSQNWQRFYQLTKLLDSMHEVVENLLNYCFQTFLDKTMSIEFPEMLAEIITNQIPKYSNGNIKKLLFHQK

Row | Structure (SMILES) | inhibition at 1 µM [1] | IC50 [2]
1 | Cc1nc(C(=O)N[C@@H]2[C@@H](c3ccccc3)N(c3ccc4c(cnn4-c4ccc(=O)n(C)c4)c3)C(=O)C2(C)C)no1 [Example 14, N-[(2R,3S)-4,4-Dimethyl-1-[1-(1-methyl-6-oxo-1H-pyridin-3-yl)-1H-indazol-5-yl]-5-oxo-2-phenyl-pyrrolidin-3-yl]-5-methyl-[1,2,4]oxadiazole-3-carboxylic acid amide] | 84% | 
2 | Cc1scnc1C(=O)N[C@@H]1[C@@H](c2ccccc2)N(c2ccc3c(cnn3-c3ccc(=O)n(C)c3)c2)C(=O)C1(C)C [Example 18, N-[(2R,3S)-4,4-Dimethyl-1-[1-(1-methyl-6-oxo-1H-pyridin-3-yl)-1H-indazol-5-yl]-5-oxo-2-phenyl-pyrrolidin-3-yl]-5-methyl-thiazole-4-carboxylic acid amide] | 29% | 
3 | Cn1cc(-n2ncc3cc(N4C(=O)C(C)(C)[C@H](NC(=O)c5cnco5)[C@H]4c4ccccc4)ccc32)ccc1=O [Example 13, N-[(2R,3S)-4,4-Dimethyl-1-[1-(1-methyl-6-oxo-1H-pyridin-3-yl)-1H-indazol-5-yl]-5-oxo-2-phenyl-pyrrolidin-3-yl]-oxazole-5-carboxylic acid amide] | 20% | 
4 | Cc1cc(C(=O)N[C@H]2[C@H](c3ccccc3)N(c3ccc4c(cnn4-c4ccc(=O)n(C)c4)c3)C(=O)C2(C)C)no1 [Example 22, N-[(2S,3R)-4,4-Dimethyl-1-[1-(1-methyl-6-oxo-1H-pyridin-3-yl)-1H-indazol-5-yl]-5-oxo-2-phenyl-pyrrolidin-3-yl]-5-methyl-isoxazole-3-carboxylic acid amide] | 18% | 
5 | Cn1cc(-n2ncc3cc(N4C(=O)C(C)(C)[C@H](NC(=O)c5cncs5)[C@H]4c4ccccc4)ccc32)ccc1=O [Example 15, N-[(2R,3S)-4,4-Dimethyl-1-[1-(1-methyl-6-oxo-1H-pyridin-3-yl)-1H-indazol-5-yl]-5-oxo-2-phenyl-pyrrolidin-3-yl]-thiazole-5-carboxylic acid amide] | 87% | 
6 | Cn1cc(-n2ncc3cc(N4C(=O)C(C)(C)[C@H](NC(=O)c5cscn5)[C@H]4c4ccccc4)ccc32)ccc1=O [Example 17, N-[(2R,3S)-4,4-Dimethyl-1-[1-(1-methyl-6-oxo-1H-pyridin-3-yl)-1H-indazol-5-yl]-5-oxo-2-phenyl-pyrrolidin-3-yl]-thiazole-4-carboxylic acid amide] | 80% | 
7 | Cn1cc(-n2ncc3cc(N4C(=O)C(C)(C)[C@@H](NC(=O)c5cnco5)[C@@H]4c4ccccc4)ccc32)ccc1=O [Example 21, N-[(2S,3R)-4,4-Dimethyl-1-[1-(1-methyl-6-oxo-1H-pyridin-3-yl)-1H-indazol-5-yl]-5-oxo-2-phenyl-pyrrolidin-3-yl]-oxazole-5-carboxylic acid amide] | 22% | 
8 | Cn1cc(-n2ncc3cc(N4C(=O)C(C)(C)[C@@H](NC(=O)c5cncs5)[C@@H]4c4ccccc4)ccc32)ccc1=O [Example 24, N-[(2S,3R)-4,4-Dimethyl-1-[1-(1-methyl-6-oxo-1H-pyridin-3-yl)-1H-indazol-5-yl]-5-oxo-2-phenyl-pyrrolidin-3-yl]-thiazole-5-carboxylic acid amide] | 12% | 
9 | Cn1ccc(C(=O)N[C@@H]2[C@@H](c3ccccc3)N(c3ccc4c(cnn4-c4ccc(=O)n(C)c4)c3)C(=O)C2(C)C)n1 [Example 12, N-[(2R,3S)-4,4-Dimethyl-1-[1-(1-methyl-6-oxo-1H-pyridin-3-yl)-1H-indazol-5-yl]-5-oxo-2-phenyl-pyrrolidin-3-yl]-1-methyl-1H-pyrazole-3-carboxylic acid amide] | 83% | 
10 | Cn1cc(-n2ncc3cc(N4C(=O)C(C)(C)[C@@H](NC(=O)C(C)(F)F)[C@@H]4c4ccccc4)ccc32)ccc1=O [Example 8, N-[(2S,3R)-4,4-Dimethyl-1-[1-(1-methyl-6-oxo-1H-pyridin-3-yl)-1H-indazol-5-yl]-5-oxo-2-phenyl-pyrrolidin-3-yl]-2,2-difluoro-propionamide] | 12% | 
11 | Cn1cc(-n2ncc3cc(N4C(=O)C5(CC5)[C@H](NC(=O)C5CC5)[C@H]4c4ccccc4)ccc32)ccc1=O (racemic) [Example 30, N-[rac-(6R,7S)-5-[1-(1-Methyl-6-oxo-1H-pyridin-3-yl)-1H-indazol-5-yl]-4-oxo-6-phenyl-5-azaspiro[2.4]heptan-7-yl]-cyclopropanecarboxylic acid amide] | 27% | 
12 | CC(F)(F)C(=O)N[C@@H]1[C@@H](c2ccccc2)N(c2ccc3c(cnn3-c3ccc(F)cc3)c2)C(=O)C1(C)C [Example 10, 2,2-Difluoro-N-[(2R,3S)-1-[1-(4-fluorophenyl)-1H-indazol-5-yl]-4,4-dimethyl-5-oxo-2-phenyl-pyrrolidin-3-yl]-propionamide] | 100% | 
13 | Cc1ncsc1C(=O)N[C@@H]1[C@@H](c2ccccc2)N(c2ccc3c(cnn3-c3ccc(=O)n(C)c3)c2)C(=O)C1(C)C [Example 16, N-[(2R,3S)-4,4-Dimethyl-1-[1-(1-methyl-6-oxo-1H-pyridin-3-yl)-1H-indazol-5-yl]-5-oxo-2-phenyl-pyrrolidin-3-yl]-4-methyl-thiazole-5-carboxylic acid amide] | 30% | 
14 | C[C@]1(F)C(=O)N(c2ccc3c(cnn3-c3ccc(F)cc3)c2)[C@H](c2ccccc2)[C@H]1NC(=O)C1CC1 (racemic) [Example 128, N-[rac-(2R,3R,4R)-4-Fluoro-1-[1-(4-fluorophenyl)-1H-indazol-5-yl]-4-methyl-5-oxo-2-phenyl-pyrrolidin-3-yl]-cyclopropanecarboxylic acid amide] |  | 0.1 to 1 µM
15 | COc1ccc([C@@H]2[C@@H](NC(=O)c3ccn(C)n3)[C@H](C)C(=O)N2c2ccc3c(cnn3-c3ccc(F)cc3)c2)cc1 (racemic) [Example 83, N-[rac-(2R,3S,4S)-1-[1-(4-Fluorophenyl)-1H-indazol-5-yl]-2-(4-methoxyphenyl)-4-methyl-5-oxo-pyrrolidin-3-yl]-1-methyl-1H-pyrazole-3-carboxylic acid amide] |  | < 0.1 µM
16 | Cc1ncoc1C(=O)N[C@H]1[C@H](c2ccccc2)N(c2ccc3c(cnn3-c3ccc(F)cc3)c2)C(=O)C1(C)C [Example 45b, N-((2S,3R)-1-(1-(4-fluorophenyl)-1H-indazol-5-yl)-4,4-dimethyl-5-oxo-2-phenylpyrrolidin-3-yl)-4-methyloxazole-5-carboxamide] |  | 0.1 to 1 µM
17 | O=C(N[C@@H]1[C@@H](c2ccccc2)N(c2ccc3c(cnn3-c3ccc(F)cc3)n2)C(=O)C12CC2)C1CC1 (racemic) [Example 33, N-[rac-((6R,7S)-5-(1-(4-fluorophenyl)-1H-pyrazolo[4,3-b]pyridin-5-yl)-4-oxo-6-phenyl-5-azaspiro[2.4]heptan-7-yl)]cyclopropanecarboxamide] |  | 1 to 15 µM
18 | COc1ccc([C@@H]2[C@@H](NC(=O)c3cccnc3)[C@H](C)C(=O)N2c2ccc3c(cnn3-c3ccc(F)cc3)c2)cc1 (racemic) [Example 84, N-[rac-(2R,3S,4S)-1-[1-(4-Fluorophenyl)-1H-indazol-5-yl]-2-(4-methoxyphenyl)-4-methyl-5-oxo-pyrrolidin-3-yl]-pyridine-3-carboxylic acid amide] |  | 0.1 to 1 µM
19 | CC1(C)C(=O)N(c2ccc3c(cnn3-c3ccc(F)cc3)c2)[C@@H](c2ccccc2)[C@@H]1NC(=O)c1cnco1 [Example 36b, N-((2S,3R)-1-(1-(4-fluorophenyl)-1H-indazol-5-yl)-4,4-dimethyl-5-oxo-2-phenylpyrrolidin-3-yl)oxazole-5-carboxamide] |  | 0.1 to 1 µM
